Data published in patent publication US8987284B2, “Phosphorus containing quinazoline compounds and methods of use” (Newgen Therapeutics, Inc., priority 2009, dated 2015).
Read-outs that look alike come from different tables or passages of the source.

Legend:
[1] = tested on: NCI-N87 xenograft; assay: Anticancer effect against NCI-N87 xenograft; type: in vivo, Balb/c nude mice
Protocol: (§1) NCI-N87 cells were purchased from ATCC, and were cultured in RPMI1640+10% FBS+1% P/S antibiotics. Balb/c nude mice were male, 6-8 week old, and weighed 18^±2 g. The cells were implanted subcutaneously into the nude mice (right flank) with 5.0×10^6 cells in 0.1 ml PBS. When the tumor size reached a volume of 200 (150-200) mm^3, the tumor-bearing nude mice derived from NCI-N87 cells were randomly assigned into four groups (10 mice/group). All groups were dosed oral, BID. One group were dosed with vehicle, one group with Lapatinib (75 mg/kg of free base, in the form of ditosylate monoydrate), and the rest two groups with Example 4 (50, 100 mg/kg, p.o. Bid, respectively). The administration period lasted 4 weeks. The tumor volume were measured twice a week, and the body weight were measured immediately before measuring the tumor volume throughout the whole study. On day 11 after initiation of the treatment, the dosing of Example 4 at 100 mg/kg was suspended, and the dosing of the group was resumed on day 15 at a reduced dose of 75 mg/Kg. […] (See FIG. 1).

[2] = Body weight change of NCI-N87 xenograft mice; type: in vivo, Balb/c nude mice; conditions: po
Protocol: as §1, with “study.” for “study. On day 11 after initiation of the treatment, the dosing of Example 4 at 100 mg/kg was suspended, and the dosing of the group was resumed on day 15 at a reduced dose of 75 mg/Kg.”

[3] = Pharmacokinetic study in rat; type: in vivo; set-up: clearance: unit not given here; conditions: for AUC(0-inf): read-out: AUC0-inf-obs; for half-life: read-out: T½ (converted)
Protocol: (§2) The dog PK protocol is shown here, while PK study protocol of mouse and rat are similar to dog. Beagle dogs of this study were 6-8 month old and weighed 8 to 10 kg. Example 4 was dissolved in 2% DMA and 98% (40% HP-β-CD in deionized water) to yield concentration at 2 mg/mL for both intravenous (IV, a bolus injection via the lateral tail vein) and oral (PO, via oral gavage) administrations. Blood samples (approximately 1 ml) was collected via cephalic into tubes containing EDTA-K3 anticoagulant pre-dose and post-dose at 5 min, 15 min, 30 min, 1 h, 2 h, 4 h, 6 h, 8 h and 24 h. Blood samples were centrifuged at approximately 8000 rpm for 6 minutes at 2-8° C. and the resulting plasma were separated, labeled and stored frozen at approximately −80° C. Plasma samples analysis was performed by means of LC-MS/MS. The analytical results were confirmed using quality control samples for intra-assay variation.

[4] = Pharmacokinetic study in mouse; type: in vivo; set-up: clearance: unit not given here; conditions: for AUC(0-inf): read-out: AUC0-inf-obs; for half-life: read-out: T½ (converted)
Protocol: as §2

[5] = tested on: BT474 cells; assay: Cell proliferation inhibition assay for BT474 (CCK-8); type: cell-based; conditions: Homo sapiens, BT-474; 72 h, 8 points
Protocol: Human breast cancer BT474 cells was cultured in low glucose DMEM (Life Technologies 12320-032) containing 10% fetal bovine serum (FBS) at 37° C. in a humidified 10% CO2, 90% air incubator. Cells were harvested using trypsin/EDTA, counted using a haemocytometer, and plated 10000 cell/well in a 96-well clear tissue culture plate. The cells were incubated for 24 h at 37° C. to allow adherence. A serials of concentrations of each compound (ranging from 30 uM to […], 5-fold dilution) in 96-well plate, and incubated for 72 h. Each concentration was tested in triplicate wells. During the cell proliferation assay, BT474 cells were cultured in low-glucose DMEM containing 5% FBS, 50 ug/ml gentamicin, and 0.3% v/v DMSO. The culture medium was removed via aspiration, and the cell viability was detected by using CCK-8 cell proliferation kit.

[6] = Pharmacokinetic study in dog; type: in vivo, Beagle dogs; set-up: clearance: unit not given here; conditions: for AUC(0-inf): read-out: AUC0-inf-obs; for half-life: read-out: T½ (converted)
Protocol: as §2

[7] = target: T1, EGFR kinase (Homo sapiens, UniProt P00533); assay: Kinase assay for EGFR (TR-FRET LanthaScreen); type: biochemical; conditions: % inhibition at 100 nM or IC50 (nM)
T1 construct: purchased Invitrogen PV3872
T1 sequence (P00533 25-1210): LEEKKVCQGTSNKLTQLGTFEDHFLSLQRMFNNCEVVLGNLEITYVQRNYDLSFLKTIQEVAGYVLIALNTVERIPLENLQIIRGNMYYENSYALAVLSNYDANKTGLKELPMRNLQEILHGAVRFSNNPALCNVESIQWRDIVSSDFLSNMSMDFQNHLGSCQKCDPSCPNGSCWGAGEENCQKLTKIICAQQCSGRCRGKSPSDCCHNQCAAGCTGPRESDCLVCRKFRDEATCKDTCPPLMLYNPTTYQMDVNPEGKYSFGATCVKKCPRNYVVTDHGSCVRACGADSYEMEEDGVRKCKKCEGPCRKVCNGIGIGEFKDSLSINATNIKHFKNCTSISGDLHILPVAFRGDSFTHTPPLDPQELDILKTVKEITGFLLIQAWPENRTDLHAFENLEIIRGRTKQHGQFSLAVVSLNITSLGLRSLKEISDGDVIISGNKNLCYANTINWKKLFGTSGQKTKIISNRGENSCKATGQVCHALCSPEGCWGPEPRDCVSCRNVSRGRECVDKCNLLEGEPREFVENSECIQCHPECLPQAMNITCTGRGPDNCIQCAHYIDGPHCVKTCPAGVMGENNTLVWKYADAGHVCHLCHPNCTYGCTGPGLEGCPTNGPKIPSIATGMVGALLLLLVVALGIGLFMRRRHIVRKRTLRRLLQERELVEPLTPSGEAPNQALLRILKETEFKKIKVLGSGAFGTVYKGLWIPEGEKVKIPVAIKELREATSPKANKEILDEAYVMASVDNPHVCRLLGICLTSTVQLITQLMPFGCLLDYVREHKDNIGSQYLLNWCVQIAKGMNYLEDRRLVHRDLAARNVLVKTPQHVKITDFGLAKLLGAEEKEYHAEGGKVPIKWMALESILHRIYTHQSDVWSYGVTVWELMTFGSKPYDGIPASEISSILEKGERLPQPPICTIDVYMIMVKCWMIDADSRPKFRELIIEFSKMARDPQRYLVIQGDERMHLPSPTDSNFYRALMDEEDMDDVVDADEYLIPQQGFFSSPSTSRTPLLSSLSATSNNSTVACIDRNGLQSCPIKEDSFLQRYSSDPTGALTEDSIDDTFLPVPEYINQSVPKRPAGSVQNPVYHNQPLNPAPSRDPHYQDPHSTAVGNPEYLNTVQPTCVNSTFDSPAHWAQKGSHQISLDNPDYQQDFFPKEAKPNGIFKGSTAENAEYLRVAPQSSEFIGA
Protocol: The extent to which the compounds of the present invention modulate EGFR kinase activity can be determined using time-resolved Fret (TR-FRET) assay (LanthaScreen® kinase activity assay, from Invitrogen). The assay employs EGFR kinase (PV3872, Invitrogen), Tb-Py20 antibody (PV3552, Invitrogen) and fluorescein-poly GT (PV3610, In vitrogen)
The assay is performed in a Black 384-well plate (available from Corning). EGFR kinase (is diluted in TR-FRET Dilution Buffer (PV3189, InVitrogen) at concentration of 0.4 ug/ml as stock solution, and then 2-fold serial diluted. Addition of 1 mM ATP initiated the reaction, and the reaction is incubated for 1 h reaction at room temperature. 10 μL of the Tb-antibody (from Invitrogen)+EDTA (from Invitrogen) solution prepared was added to each well of the assay plate and mix briefly, and incubated for 30 min. The signal is monitored by using M5 microplate reader (Ex=332 nm, Em=488 nm and 518 nm). Each compound is tested in duplicate wells. EGFR without compound is used as control. Staurosporine (available from Sigma) is used as positive control compound. Inhibition was calculated as percentage of the EGFR activity (without compound)

[8] = mouse; cited from earlier work
[9] = dog; cited from earlier work
[10] = rat; cited from earlier work
[11] = plasma, IV, 2 mg/Kg, read-out: Vz

For `CP1(=O)CCN(CC#Cc2ccc3ncnc(Nc4ccc(OCc5cccc(F)c5)c(Cl)c4)c3c2)CC1` [Example 4, N-(3-chloro-4-(3-fluorobenzyloxy)phenyl)-6-(3-(4-methyl-1,4-azaphosphino-1-yl)prop-1-ynyl)quinazolin-4-amine], the “tumor growth inhibition rate” value ([1]; 50 mg/Kg, p.o. BID, 4 weeks) was 85%, the “tumor growth inhibition rate” value ([1]; 100/75 mg/Kg, p.o. BID, 4 weeks (suspended, resumed at 75 mg/Kg)) was 88% and the “body weight loss (average)” value ([2]; 100 mg/Kg, bid, day 10) was 16.9%. The “body weight after dosing suspension and resumption” value ([2]; suspension for 3 days, resumed at 75 mg/kg) was “recovered and remained normal”, the F ([3]; PO, 10 mg/Kg) was 89.6% and the AUC(0-t) ([3]; plasma, IV, 2 mg/Kg) was 2130 ng·h/mL. The Cmax ([3]; plasma, IV, 2 mg/Kg) was 1570 ng/mL, the clearance ([3]; plasma, IV, 2 mg/Kg) was 15.3 and the AUC(0-inf) ([3]; plasma, IV, 2 mg/Kg) was 2180 ng·h/mL. For the same compound, the half-life ([3]; plasma, IV, 2 mg/Kg) was 19.9 h, the Vd [3, 11] was 7.92 L and the AUC(0-t) ([3]; plasma, PO, 10 mg/Kg) was 9700 ng·h/mL. It also gave a Cmax ([3]; plasma, PO, 10 mg/Kg) of 1800 ng/mL, an AUC(0-inf) ([3]; plasma, PO, 10 mg/Kg) of 9780 ng·h/mL and a half-life ([3]; plasma, PO, 10 mg/Kg) of 11.5 h. The F ([4]; PO, 10 mg/Kg) was 36%, the AUC(0-t) ([4]; plasma, IV, 2 mg/Kg) was 5070 ng·h/mL and the Cmax ([4]; plasma, IV, 2 mg/Kg) was 1520 ng/mL. The clearance ([4]; plasma, IV, 2 mg/Kg) was 6.5, the AUC(0-inf) ([4]; plasma, IV, 2 mg/Kg) was 5080 ng·h/mL and the half-life ([4]; plasma, IV, 2 mg/Kg) was 0.59 h. The Vd [4, 11] was 0.33 L, the AUC(0-t) ([4]; plasma, PO, 10 mg/Kg) was 8830 ng·h/mL and the Cmax ([4]; plasma, PO, 10 mg/Kg) was 2840 ng/mL. For the same compound, the AUC(0-inf) ([4]; plasma, PO, 10 mg/Kg) was 9060 ng·h/mL, the half-life ([4]; plasma, PO, 10 mg/Kg) was 1.41 h and the IC50 [5] was less than 100 nM. It also gave an F ([6]; PO, 10 mg/Kg) of 100%, an AUC(0-t) ([6]; beagle, plasma, IV, 2 mg/Kg) of 1480 ng·h/mL and a Cmax ([6]; beagle, plasma, IV, 2 mg/Kg) of 1150 ng/mL. The clearance ([6]; beagle, plasma, IV, 2 mg/Kg) was 22.3, the AUC(0-inf) ([6]; beagle, plasma, IV, 2 mg/Kg) was 1490 ng·h/mL and the half-life ([6]; beagle, plasma, IV, 2 mg/Kg) was 2.46 h. It also gave a Vd ([6]; beagle, plasma, IV, 2 mg/Kg, read-out: Vz) of 1.44 L, an AUC(0-t) ([6]; beagle, plasma, PO, 10 mg/Kg) of 7640 ng·h/mL and a Cmax ([6]; beagle, plasma, PO, 10 mg/Kg) of 2380 ng/mL. The AUC(0-inf) ([6]; beagle, plasma, PO, 10 mg/Kg) was 7720 ng·h/mL, the half-life ([6]; beagle, plasma, PO, 10 mg/Kg) was 3.8 h and the “EGFR inhibition inhibit % at 100 nM or IC50 (nM)” value (from here on “EGFR inhibition inhibit %”) [7] was “++ (>50% inhibition at 100 nM, or IC50 <100 nM for EGFR or ErbB2 kinases)”.

With `C#Cc1cc(Nc2ncnc3ccc(-c4ccc(CN5CCP(C)(=O)CC5)o4)cc23)ccc1OCc1cccc(F)c1` [Example 23, N-(4-(3-fluorobenzyloxy)-3-ethynylphenyl)-6-(5-((4-methyl-1,4-azaphosphino-1-yl)methyl)furan-2-yl)quinazolin-4-amine] the IC50 [5] was 100 to 1000 nM and the “EGFR inhibition inhibit %” value [7] was “++ (>50% inhibition at 100 nM, or IC50 <100 nM for EGFR or ErbB2 kinases)”.

With `Cc1cccc(COc2ccc(Nc3ncnc4ccc(-c5ccc(CN6CCP(C)(=O)CC6)o5)cc34)cc2Cl)[n+]1[O-]` [Example 24, 2-((2-chloro-4-(6-(5-((4-methyl-1,4-azaphosphino-1-yl)methyl)furan-2-yl)quinazolin-4-ylamino)phenoxy)methyl)-6-methylpyridine 1-oxide] the IC50 [5] was 100 to 1000 nM and the “EGFR inhibition inhibit %” value [7] was “++ (>50% inhibition at 100 nM, or IC50 <100 nM for EGFR or ErbB2 kinases)”.

With `CP(C)(=O)CCNCc1ccc(-c2ccc3ncnc(Nc4ccc5c(cnn5Cc5cccc(F)c5)c4)c3c2)o1` [Example 25, 6-(5-((2-(dimethylphosphinoyl)ethylamino)methyl)furan-2-yl)-N-(1-(3-fluorobenzyl)-1H-indazol-5-yl)quinazolin-4-amine] the IC50 [5] was 100 to 1000 nM and the “EGFR inhibition inhibit %” value [7] was “++ (>50% inhibition at 100 nM, or IC50 <100 nM for EGFR or ErbB2 kinases)”.

With `CCN(CCP(C)(C)=O)Cc1ccc(-c2ccc3ncnc(Nc4ccc5c(cnn5Cc5cccc(F)c5)c4)c3c2)o1` [Example 26] the IC50 [5] was 100 to 1000 nM and the “EGFR inhibition inhibit %” value [7] was “++ (>50% inhibition at 100 nM, or IC50 <100 nM for EGFR or ErbB2 kinases)”.

For `CP(C)(=O)CCN(CCO)Cc1ccc(-c2ccc3ncnc(Nc4ccc5c(cnn5Cc5cccc(F)c5)c4)c3c2)o1` [Example 27, 2-(N-((5-(4-(1-(3-fluorobenzyl)-1H-indazol-5-ylamino)quinazolin-6-yl)furan-2-yl)methyl)-N-(2-(dimethylphosphinoyl)ethyl)amino)ethanol], the IC50 [5] was less than 100 nM and the “EGFR inhibition inhibit %” value [7] was “++ (>50% inhibition at 100 nM, or IC50 <100 nM for EGFR or ErbB2 kinases)”.

With `CP1(=O)CCN(CC#Cc2ccc3ncnc(Nc4ccc5c(cnn5Cc5cccc(F)c5)c4)c3c2)CC1` [Example 28, N-(1-(3-fluorobenzyl)-1H-indazol-5-yl)-6-(3-(4-methyl-1,4-azaphosphino-1-yl)prop-1-ynyl)quinazolin-4-amine] the IC50 [5] was 100 to 1000 nM and the “EGFR inhibition inhibit %” value [7] was “++ (>50% inhibition at 100 nM, or IC50 <100 nM for EGFR or ErbB2 kinases)”.

For `CS(=O)(=O)CCNCc1ccc(-c2ccc3ncnc(Nc4ccc(OCc5cccc(F)c5)c(Cl)c4)c3c2)o1` [lapatinib, Lapatinib], the “tumor growth inhibition rate” value ([1]; 75 mg/Kg of free base, oral BID, 4 weeks) is listed as 48%, the “oral bioavailability (F)” value [8] is listed as 32% and the “oral bioavailability (F)” value [9] is listed as 63%. For the same compound, the “oral bioavailability (F)” value [10] was 29%.
